Test results reported in ChEMBL document CHEMBL4825690, “Synthesis and biological evaluation of chalcone-polyamine conjugates as novel vectorized agents in colorectal and prostate cancer chemotherapy” (Eur J Med Chem, 2021).
Active and inactive are the calls of the source. No cut-off for these calls is given here.

Experiments:
PC-3 [1] = experiment: Antiproliferative activity against human PC3 cells assessed as reduction in cell viability incubated for 48 hr by MTT assay; format: functional, cell-based; conditions: PC-3, 48 h
HT-29 [2] = experiment: Antiproliferative activity against human HT29 cells assessed as reduction in cell viability incubated for 48 hr by MTT assay; format: functional, cell-based; conditions: HT-29, 48 h
HCT-116 [3] = experiment: Antiproliferative activity against human HCT116 cells assessed as reduction in cell viability incubated for 48 hr by MTT assay; format: functional, cell-based; conditions: HCT-116, 48 h
HT-29 [4] = experiment: Induction of cell cycle arrest in human HT-29 cells assessed as accumulation at sub-G1 phase at IC50 incubated for 48 hrs by RNaeA/propidium iodide based flow cytometry analysis (reference value: 0.12 %); format: functional
HT-29 [5] = experiment: Induction of cell cycle arrest in human HT-29 cells assessed as accumulation at G1 phase at IC50 incubated for 48 hrs by RNaeA/propidium iodide based flow cytometry analysis (reference value: 54.39 %); format: functional
HCT-116 [6] = experiment: Induction of cell cycle arrest in human HCT-116 cells assessed as accumulation at sub-G1 phase at IC50 incubated for 48 hrs by RNaeA/propidium iodide based flow cytometry analysis (reference value: 0.67 %); format: functional
PC-3 [7] = experiment: Induction of cell cycle arrest in human PC3 cells assessed as accumulation at sub-G1 phase at IC50 incubated for 48 hrs by RNaeA/propidium iodide based flow cytometry analysis (reference value: 0 %); format: functional
PC-3 [8] = experiment: Induction of cell cycle arrest in human PC3 cells assessed as accumulation at S phase at IC50 incubated for 48 hrs by RNaeA/propidium iodide based flow cytometry analysis (reference value: 33.66 %); format: functional
PC-3 [9] = experiment: Induction of cell cycle arrest in human PC3 cells assessed as accumulation at G2 phase at IC50 incubated for 48 hrs by RNaeA/propidium iodide based flow cytometry analysis (reference value: 23.73 %); format: functional
DU-145 [10] = experiment: Induction of cell cycle arrest in human DU-145 cells assessed as accumulation at G1 phase at IC50 incubated for 48 hrs by […]/propidium iodide based flow cytometry analysis (reference value: 45.5 %); format: functional
HT-29 [11] = experiment: Induction of cell cycle arrest at G1 phase in human HT-29 cells assessed as reduction in CDK4 expression by Western blot analysis; format: functional, cell-based
HCT-116 [12] = experiment: Induction of cell cycle arrest in human HCT-116 cells assessed as reduction in CDK2 expression by Western blot analysis; format: functional, cell-based
HCT-116 [13] = experiment: Induction of cell cycle arrest in human HCT-116 cells assessed as increase in Cyclin D1 expression by Western blot analysis; format: functional, cell-based
HCT-116 [14] = experiment: Induction of cell cycle arrest in human HCT-116 cells assessed as increase in p21 expression by Western blot analysis; format: functional, cell-based
PC-3 [15] = experiment: Induction of cell cycle arrest in human PC-3 cells assessed as decrease in cyclin A2 expression by Western blot analysis; format: functional, cell-based
PC-3 [16] = experiment: Induction of cell cycle arrest in human PC-3 cells assessed as decrease in cyclin B1 expression by Western blot analysis; format: functional, cell-based
DU-145 [17] = experiment: Induction of cell cycle arrest in human DU-145 cells assessed as effect on cyclin A2 expression by Western blot analysis; format: functional, cell-based
DU-145 [18] = experiment: Induction of cell cycle arrest in human DU-145 cells assessed as increase in p21 expression by Western blot analysis; format: functional, cell-based
HT-29 [19] = experiment: Induction of apoptosis in human HT-29 cells assessed as viable cells incubated for 48 hrs by annexin-V/FITC and propidium iodide staining based flow cytometry analysis (reference value: 83.56 %); format: functional
HCT-116 [20] = experiment: Induction of apoptosis in human HCT-116 cells assessed as viable cells incubated for 48 hrs by annexin-V/FITC and propidium iodide staining based flow cytometry analysis (reference value: […] %); format: functional
HCT-116 [21] = experiment: Induction of apoptosis in human HCT-116 cells assessed as late apoptotic cells incubated for 48 hrs by annexin-V/FITC and propidium iodide staining based flow cytometry analysis (reference value: 7.22 %); format: functional
PC-3 [22] = experiment: Induction of apoptosis in human PC-3 cells assessed as viable cells incubated for 48 hrs by annexin-V/FITC and propidium iodide staining based flow cytometry analysis (reference value: 92.95 %); format: functional
DU-145 [23] = experiment: Induction of apoptosis in human DU-145 cells assessed as viable cells incubated for 48 hrs by annexin-V/FITC and propidium iodide staining based flow cytometry analysis (reference value: 94.13 %); format: functional
DU-145 [24] = experiment: Induction of apoptosis in human DU-145 cells assessed as early apoptotic cells incubated for 48 hrs by annexin-V/FITC and propidium iodide staining based flow cytometry analysis (reference value: 3.27 %); format: functional
DU-145 [25] = experiment: Induction of apoptosis in human DU-145 cells assessed as late apoptotic cells incubated for 48 hrs by annexin-V/FITC and propidium iodide staining based flow cytometry analysis (reference value: 2.56 %); format: functional
HT-29 [26] = experiment: Induction of apoptosis in human HT-29 cells assessed as decrease in pro-caspase-3 expression by Western blot assay; format: functional, cell-based
PC-3 [27] = experiment: Induction of apoptosis in human PC-3 cells assessed as increase in caspase-3 level by Western blot assay; format: functional, cell-based
HCT-116 [28] = experiment: Induction of apoptosis in human HCT-116 cells assessed as increase in caspase-3 level by Western blot assay; format: functional, cell-based
DU-145 [29] = experiment: Induction of apoptosis in human DU-145 cells assessed as increase in cleaved PARP protein expression by Western blot assay; format: functional, cell-based
HT-29 [30] = experiment: Induction of apoptosis in human HT-29 cells assessed as decrease in PARP protein expression by Western blot assay; format: functional, cell-based
DU-145 [31] = experiment: Induction of apoptosis in human DU-145 cells assessed as decrease in PARP protein expression by Western blot assay; format: functional, cell-based
HT-29 [32] = experiment: Induction of apoptosis in human HT-29 cells assessed as increase in DNA fragmentation after 48 hrs by ELISA relative to control; format: functional
DU-145 [33] = experiment: Induction of apoptosis in human DU-145 cells assessed as increase in DNA fragmentation after 48 hrs by ELISA relative to control; format: functional
Tubulin (Homo sapiens) = Tubulin (Homo sapiens) (UniProt P68371+Q9H4B7+P0DPH7+P68366+Q13509+Q71U36+P04350+Q3ZCM7+P07437+P68363+Q9BQE3+Q6PEY2+Q13885+Q9BVA1+Q9BUF5); experiment: Inhibition of tubulin polymerization in human HeLa cells measured after 2 hrs by fluorescent immunostaining method; format: cell-based

`COc1cc(C(=O)/C=C/c2ccc(OCCCNCCCNCCCCN)cc2)cc(OC)c1OC` gave an IC50 (PC-3 [1]) of 13.7 µM, an IC50 (HT-29 [2]) of 10.8 µM and an IC50 (HCT-116 [3]) of 8.13 µM. The Activity (HT-29 [4]) was 7.07%, the Activity (HT-29 [5]) was 60.65% and the Activity (HCT-116 [6]) was 24.17%. For the same compound, the Activity (PC-3 [7]) was 26.99%, the Activity (PC-3 [8]) was 22.17% and the Activity (PC-3 [9]) was 58.17%. The Activity (DU-145 [10]) was 28.11%, the Activity (HT-29 [11]) was “Active” and the Activity (HCT-116 [12]) was “Active”. The Activity (HCT-116 [13]) was “Active”, the Activity (HCT-116 [14]) was “Active” and the Activity (PC-3 [15]) was “Active”. For the same compound, the Activity (PC-3 [16]) was “Active”, the Activity (DU-145 [17]) was “inactive” and the Activity (DU-145 [18]) was “Active”. It also gave an Activity (HT-29 [19]) of 56.67%, an Activity (HCT-116 [20]) of 52.13% and an Activity (HCT-116 [21]) of 21.6%. The Activity (PC-3 [22]) was 50.47%, the Activity (DU-145 [23]) was 38.96% and the Activity (DU-145 [24]) was 52.25%. The Activity (DU-145 [25]) was 8.74%, the Activity (HT-29 [26]) was “Active” and the Activity (PC-3 [27]) was “Active”. For the same compound, the Activity (HCT-116 [28]) was “Active”, the Activity (DU-145 [29]) was “Active” and the Activity (HT-29 [30]) was “Active”. For the same compound, the Activity (DU-145 [31]) was “Active”, the “fold change (FC)” value (HT-29 [32]) was 2.07 and the “fold change (FC)” value (DU-145 [33]) was 4.88. For the same compound, the inhibition (Tubulin (Homo sapiens)) was “inactive”.
